Measured values: patent US6489304B2, “Hyperstructure-forming carriers” (Hybridon, Inc., priority 1997, dated 2002)

Assays:
[1] = Tissue distribution of radioactivity after i.v. bolus administration of radiolabeled oligonucleotides; assay type: in vivo; details: rats
Description: (§1) To carry out pharmacokinetic studies, [^35S]-labeled PS-oligonucleotides were synthesized using phosphoramidite chemistry; the intermediate phosphite linkage was oxidized with [^35S8] to incorporate [^35S]. (Agrawal, et al., Synthetic Methods for the Radioisotopic Labeling of Oligonucleotides, in: Antisense Oligonucleotide from Technology to Therapy (Schlingensiepen, ed.) Blackwell, Berlin, pp. 60-77 (1996)). [^35S] was incorporated at the fifth (oligonucleotide HYB0411) or fourth (oligonucleotide HYB0412 and HYB0413) internucleotide linkage.
(§2) A dose of 10 mg/kg of [^35S]-labeled PS-oligonucleotide was administered intravenously (i.v.) to rats (Wistar rats from Charles River, Wilmington, Mass.). Following administration, plasma was collected after 5, 15 and 30 minutes and after 1, 3, 6, 12, 24 and 48 hours. Radioactivity levels were measured to monitor plasma clearance at each time point. Following administration of PS-oligonucleotide, animals (3 rats/group) were sacrificed at 12, 24 and 48 hours. The following tissues were removed and homogenized: muscle, lung, liver, kidney, and spleen. Radioactive levels were measured, to monitor tissue distribution of each of the oligonucleotides. To follow the excretion of PS-oligonucleotides, urine and feces were collected using metabolism cages at 0-3, 3-6, 6-12, 12-24 and 24-48 hour intervals and radioactivity levels were measured using the methods previously reported (Zhang, et al., Biochem. Pharmacol., 49: 929-939 (1995)).
The oligonucleotide-equivalent concentrations of radioactivity in tissues after i.v. bolus administration of radiolabeled oligonucleotides to rats are shown in FIGS. 4-8. […] Significant differences in distribution pattern were found among the three oligonucleotides. […] Oligonucleotide HYB0411 had the highest kidney concentration: 40% higher than that of Oligonucleotides HYB0412 and HYB0413.

[2] = Plasma pharmacokinetics of [35S]-labeled PS-oligonucleotides after i.v. bolus administration; assay type: in vivo; details: rats, 10 mg/kg i.v.; for maximum plasma concentration (Cmax): radioactivity, compared with Oligonucleotide HYB0413
Description: as §1, §2
FIG. 3 illustrates the plasma concentration-time courses of oligonucleotide equivalents after i.v. bolus administration of radiolabeled oligonucleotides into rats, based on quantification of radioactivity. As shown in previous studies (Agrawal, et al., Clin. Pharm. 28:7-16 (1995); Zhang, et al., Biochem. Pharmacol., 49: 929-939 (1995)), PS-oligonucleotides rapidly clear from the plasma. […] No significant difference in plasma elimination half-life (t½β) was observed.

[3] = Chemical forms of radioactivity in tissues by polyacrylamide gel electrophoresis (in vivo stability); details: rats
[4] = Cumulative urinary and fecal excretion of radioactivity over 48 hours; assay type: in vivo; details: rats, 10 mg/kg i.v., rank among the three oligonucleotides
Procedure: as §2
FIGS. 9 and 10 show the cumulative excretion of urinary and fecal radioactivity over 48 hours following administration of radiolabeled oligonucleotides. Urinary excretion represented the major pathway of elimination. […] Oligonucleotide HYB0411 had the lowest urinary excretion rate and Oligonucleotide HYB0413 had the highest urinary excretion rate. Fecal excretion was a minor pathway of elimination (FIG. 11); Oligonucleotide HYB0413 had the highest fecal excretion rate.

Substance	liver concentration, higher than Oligonucleotide HYB0413 ([1]; 10 mg/kg i.v.)	kidney concentration, higher than that of Oligonucleotides HYB0412 and HYB0413 ([1]; 10 mg/kg i.v., highest kidney concentration) [%]	maximum plasma concentration (Cmax) [2]	distribution half-life (t½α) ([2]; compared with Oligonucleotides HYB0412 and HYB0413)	degradation in the kidney ([3]; kidney tissue, PAGE after 5'-post labeling)	urinary excretion rate [4]	lung concentration ([1]; 10 mg/kg i.v., compared with HYB0411 and HYB0412)	tissue concentrations in the tissues examined (in general) ([1]; 10 mg/kg i.v., comparison among the three oligonucleotides)	bone marrow concentration ([1]; 12 hours after dosing, compared with HYB0411 and HYB0412, data not shown)	fecal excretion rate [4]	in vivo stability ([3]; b74 compared with Oligonucleotide HYB0411, b75 compared with control oligonucleotide)	absorption ([3]; compared with Oligonucleotide HYB0411)
5′-CTCTCGCACCCATCTCTCTCCTTCTGGGG-3′ (all phosphorothioate, sugars by position and methylation of C not given here) [Oligonucleotide HYB0411]	approximately 50%	40	significantly higher	shorter	time-dependent degradation	lowest						
5′-CTCTCGCACCCATCTCTCTCCTTCT-3′ [Oligonucleotide HYB0413, reference compound]						highest	significantly higher concentrations	different from those of Oligonucleotide HYB0411 and Oligonucleotide HYB0412	higher concentrations	highest		
5′-CTCTCGCACCCATCTCTCTCCTTCTGTGT-3′ [Oligonucleotide HYB0412]	approximately 50%		significantly higher								superior in vivo stability	greater absorption
